From patent publication US20170119806A1, “[…] LACTONE DERIVATIVES AND METHODS OF MAKING AND USING THEREOF” (OHIO STATE INNOVATION FOUNDATION, priority 2014, published 2017)
“Also recorded” adds a separate entry of the source.

Key:
[1] = tested on: C3-3P NF-κB p65 binding site of the IFNG promoter; experiment: EMSA and ChIP of p65 binding to the IFNG promoter; assay type: cell-based, human; conditions: 10 μM PL-C with IL-12 (10 ng/mL), 12 h, ChIP
Protocol: (A) Schematic of IFNG promoter potential binding sites for p65 (45). (B) NK cells purified from healthy donors were treated with 10 μM PL-C or DMSO vehicle control in the presence of IL-12 (10 ng/mL) for 12 h. Cell pellets were harvested for nuclear extraction, followed by EMSA with a ^32P-labeled oligonucleotide containing the C3-3P NF-κB p65 binding site of the IFNG promoter. Data shown represent one of three donors with similar results. (C) Cells were treated as described in (B), and the cell pellets were harvested to extract protein for ChIP assay of p65 binding to the IFNG promoter locus C3-3P. Mean of relative association of p65 at the IFNG promoter locus C3-3P from three independent experiments is shown. *p<0.05, compared with cells treated with IL-12 alone. Error bars represent S.D.
EMSA. Nuclear extracts were isolated using a nuclear extract kit, according to the manufacturer's instruction (Active Motif, Carlsbad, Calif.). EMSA was performed as described previously (Bachmeyer C et al. Nucleic Acids Res, 1999, 27, 643-648). […]
Chromatin immunoprecipitation. […] DNA precipitated by the anti-p65 or the normal IgG Abs was quantified by real-time PCR, and values were normalized to input DNA.

[2] = tested on: CCD-112CoN normal human colon cells; experiment: Cytotoxicity against CCD-112CoN cells
Excerpt: Following a previous procedure (Still P C et al. J. Nat. Prod. 2013, 76, 243-249) and the method for screening cytotoxicity towards HT-29 cells mentioned above, the cytotoxicity of the samples was screened against CCD-112CoN normal human colon cells.

[3] = target: topo IIα (Homo sapiens, UniProt P11388); experiment: Topoisomerase II assay (DNA cleavage/relaxation); assay type: biochemical; conditions: 100 μM test compound
Excerpt: The formation of linear DNA was detected by separating the SDS-treated reaction products using ethidium bromide gel electrophoresis and quantified by accounting for the relationship between fluorescence and relative band intensity for open circular (OC), linear (LNR), supercoiled (SC), and relaxed (RLX) configurations of DNA.
Topoisomerase II Assay. […] The formation of linear DNA was detected by separating the SDS-treated reaction products using ethidium bromide gel electrophoresis by a modification of a previously described procedure (Hasinoff B B et al. Mol. Pharmacol. 2005, 67, 937-947). In this system, topo II-mediated catalytic conversion of supercoiled pBR322 DNA to the “relaxed” form of plasmic' DNA can also be observed. A 20 μL cleavage assay reaction mixture contained 250 ng topo IIα protein, 160 ng pBR322 plasmid DNA (NEB, Ipswich, Mass.), 1.0 mM ATP in assay buffer (10 mM Tris-HCl (pH 7.5), 50 mM KCl, 50 mM NaCl, 0.1 mM EDTA, 5 mM MgCl2, 2.5% glycerol), and 100 μM of test compounds or DMSO solvent, as indicated. Assay buffer (17 μL) and test compound/DMSO (1 μL) were mixed and allowed to sit at room temperature for 30 min after which 2 μL of topo IIα was added to initiate the reaction. Tubes were incubated at 37° C. for 15 min, and then quenched with 1% (v/v) SDS/10 mM disodium EDTA/200 mM NaCl. The mixture was treated subsequently with 0.77 mg/mL proteinase K (Sigma) at 55° C. for 60 min to digest the protein, and DNA bands were separated by electrophoresis (18 h at 2 V/cm) on an agarose gel (1.3% w/v) containing 0.7 μg/mL ethidium bromide in TAE buffer pH 8.0 (40 mM Tris base, 0.114% (v/v) glacial acetic acid, 2 mM EDTA). The DNA in the gel was imaged by its fluorescence on a Chemi-Doc XRS+ imager (Bio-Rad, Hercules, Calif.). Linear DNA was quantified by accounting for the relationship between fluorescence and relative band intensity for open circular (QC), linear (LNR), supercoiled (SC), and RLX (relaxed) configurations of DNA (Projan S J et al. Plasmid 1983, 9, 182-190), then calculating % of LNR from the total DNA content in each lane.

[4] = tested on: HT-29 human colon cancer cells
Protocol: (§1) The cytotoxicity of the test compounds was screened against HT-29 cells by a previously reported procedure (Ren Y et al. J. Nat. Prod 2011, 74, 1117-1125). Paclitaxel and etoposide were used as positive controls.
(§2) All arylnaphthalene lignans isolated from P. poilanet in the present study and their semi-synthetic analogues were evaluated for their cytotoxicity against HT-29 human colon cancer cells, using paclitaxel as the positive control (Table 6) (Ren Y et al. J. Nat. Prod 2011, 74, 1117-1125).

[5] = tested on: HT-29 human colon cancer cells; experiment: Cytotoxicity against HT-29 cells; conditions: read-out: IC50 values toward the HT-29 cells; Table 6; triplicate, two independent experiments
Protocol: as §1, §2

Sequence of topo IIα (P11388 whole entry): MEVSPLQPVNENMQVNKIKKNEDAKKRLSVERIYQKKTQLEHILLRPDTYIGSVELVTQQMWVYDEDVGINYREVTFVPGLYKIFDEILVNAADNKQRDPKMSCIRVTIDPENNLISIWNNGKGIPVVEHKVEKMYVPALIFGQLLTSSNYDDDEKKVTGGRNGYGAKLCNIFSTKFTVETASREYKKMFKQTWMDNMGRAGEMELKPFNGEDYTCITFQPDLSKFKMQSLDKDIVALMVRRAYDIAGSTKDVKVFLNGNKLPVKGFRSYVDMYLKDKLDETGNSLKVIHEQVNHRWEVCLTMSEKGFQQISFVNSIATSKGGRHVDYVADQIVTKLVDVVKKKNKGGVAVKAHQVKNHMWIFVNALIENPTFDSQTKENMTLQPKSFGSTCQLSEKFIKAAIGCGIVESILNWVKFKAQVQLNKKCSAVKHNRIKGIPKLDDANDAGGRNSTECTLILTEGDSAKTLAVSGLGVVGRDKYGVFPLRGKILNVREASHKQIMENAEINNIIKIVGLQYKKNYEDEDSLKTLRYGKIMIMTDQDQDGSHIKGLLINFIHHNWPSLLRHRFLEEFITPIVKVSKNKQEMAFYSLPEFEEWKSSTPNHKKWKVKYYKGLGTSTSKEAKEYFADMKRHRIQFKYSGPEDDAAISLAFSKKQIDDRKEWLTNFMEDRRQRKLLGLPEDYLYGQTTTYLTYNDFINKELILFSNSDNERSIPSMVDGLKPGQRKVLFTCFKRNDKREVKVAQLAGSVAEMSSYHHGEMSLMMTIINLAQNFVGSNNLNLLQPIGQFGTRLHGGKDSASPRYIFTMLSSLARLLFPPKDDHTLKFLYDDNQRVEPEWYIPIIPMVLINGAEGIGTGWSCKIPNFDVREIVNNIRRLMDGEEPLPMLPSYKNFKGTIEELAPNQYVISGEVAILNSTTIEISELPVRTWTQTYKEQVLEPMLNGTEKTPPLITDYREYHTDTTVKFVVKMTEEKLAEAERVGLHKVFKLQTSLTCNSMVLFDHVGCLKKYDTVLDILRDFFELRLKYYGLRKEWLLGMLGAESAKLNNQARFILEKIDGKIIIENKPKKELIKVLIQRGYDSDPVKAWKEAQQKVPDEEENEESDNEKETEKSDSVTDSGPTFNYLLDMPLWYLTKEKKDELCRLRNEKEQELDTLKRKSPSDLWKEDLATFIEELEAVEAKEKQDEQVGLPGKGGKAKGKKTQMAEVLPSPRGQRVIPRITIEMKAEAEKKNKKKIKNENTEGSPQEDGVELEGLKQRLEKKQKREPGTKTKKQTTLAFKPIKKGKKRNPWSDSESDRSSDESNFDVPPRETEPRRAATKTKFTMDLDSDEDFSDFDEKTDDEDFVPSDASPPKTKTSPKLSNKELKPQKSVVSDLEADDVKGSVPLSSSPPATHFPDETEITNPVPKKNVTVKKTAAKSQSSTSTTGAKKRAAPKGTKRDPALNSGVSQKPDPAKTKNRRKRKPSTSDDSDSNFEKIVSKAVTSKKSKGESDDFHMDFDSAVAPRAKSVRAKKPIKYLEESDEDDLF

## COc1cc2c(OC3OCC(O)C(O)C3O)c3c(c(-c4ccc5c(c4)OCO5)c2cc1OC)C(=O)OC3 (stereo not drawn) [Compound 4, Phyllanthusmin C]
[1]
  p65 binding to the C3-3P site of the IFNG promoter: enhanced p65 binding to the C3-3P binding site
[2]
  cytotoxicity toward CCD-112CoN human normal colon cells (in words): non-cytotoxic
[2]; read-out: IC50 values toward the CCD-112 CoN cells, Table 6
  IC50: > 100 µM
[3]
  topo IIα inhibition (in words): not topo Ha inhibitors; also recorded: not topo IIα inhibitors
[4]
  cytotoxicity toward HT-29 cells (in words): cytotoxic
[5]
  IC50: 3.2 µM
